Test results as given in PMC7053711, “A G protein–coupled receptor mediates neuropeptide-induced oocyte maturation in the jellyfish Clytia” (PLoS Biology, 2020).
Peptide text beside a SMILES is read from it.

Columns and labels:
Clytia MIHR [1] = assay: GPCR deorphanization assay, luminescence response to peptides at 1 μM (CHO-K1 cells, Gα-16, GFP-apoaequorin); type: cell-based, Clytia hemisphaerica; conditions: peptide 1E-6M, normalised to Platynereis FLamide receptor + 1 μM AKYFL-NH2, n = 3
Description: We used a cell culture–based GPCR deorphanization assay to identify the MIH receptor from our candidate shortlist. cDNAs for each candidate were transfected into Chinese Hamster ovary K1 (CHO-K1) cells along with the promiscuous Gα protein Gα-16, and an aequorin-GFP luminescence reporter that measures Ca^2+ mobilization downstream of this heterologous Gα protein [27, 28]. We first screened the 16 candidate Clytia GPCRs against a mixture of 33 synthetic amidated peptides (including MIHs) predicted to be generated from previously identified putative Clytia neuropeptide precursors and one additional one identified from transcriptome data. Given our imperfect knowledge of pro-peptide processing in cnidarians, some of the synthetic peptides may not correspond to endogenous peptides. Only one of the 16 GPCRs was activated by this peptide mixture. This receptor responded well to all 4 synthetic Clytia MIH tetrapeptides, as well as to related Cladonema MIH peptides that can also activate Clytia oocyte maturation, but not to other Clytia peptide mixtures or poorly active MIH penta-/tripeptides. We termed this Clytia GPCR the Maturation Inducing Hormone Receptor (MIHR). The activity of individual peptides at 1 μM to stimulate the MIHR closely matched their in vivo ability to induce oocyte maturation (Fig 1B).
(§1) Cell culture GPCR ligand response assays were performed as described. Briefly, CHO-K1 cells were cultured in Ham’s F12 Nut Mix medium (Thermo Fisher Scientific) with 10% foetal bovine serum. Cells were seeded in 96-well plates at approximately 10,000 cells/well and transfected the following day with pcDNA3.1(+) plasmids encoding each of the 16 candidate Clytia GPCRs (S2 Text), the promiscuous Gα-16 protein [65], and a reporter construct GFP-apoaequorin [66] (60 ng each) using the transfection reagent TurboFect (Thermo Fisher Scientific). After 2 days of expression, the medium was removed and replaced with Hank’s balanced salt solution (HBSS) supplemented with 1.8 mM Ca2+, 10 mM glucose, and […] coelenterazine h (Promega, Madison, WI). After incubation at 37 °C for 2 hours, cells were tested by adding synthetic peptides (GenScript) in HBSS supplemented with 1.8 mM Ca2^+ and 10 mM glucose. A list of all synthetic peptides used is provided in S2 Table. Luminescence was recorded for 45 seconds in a plate reader (BioTek Synergy Mx or Synergy H4; BioTek, Winooski, VT). Data were integrated over the 45-second measurement period and recorded as technical triplicates in each case. Data were normalized using the response of Platynereis FLamide receptor to 1 μM AKYFL-NH2 [28]. Dose–response curves were obtained using concentrations between 0.01 nM and 100 μM for each peptide. Data for dose–response curves were recorded in triplicate for each concentration and the experiment was repeated independently 3 times. Dose–response curves were fitted with a four-parameter curve using Prism 6 (GraphPad, La Jolla, CA) and were normalized to the calculated upper plateau values (100% activation).
Supplementary file pbio.3000614.s011.xlsx: S1 Data Numerical data corresponding to Fig 1B. Raw luminescence values obtained in triplicate for each of the neuropeptide combinations tested against the MIHR in the deorphanization assay are provided. In the right-hand table, the raw luminescence values obtained in quadruple for the positive and negative controls are provided. In the lower table, means and standard errors of the mean of the luminescence values obtained for each neuropeptide combination and controls are also shown, as well as the values normalized to the positive control, which were used to prepare the graph shown in Fig 1B. MIHR, MIH receptor. (XLSX) Click here for additional data file.

Clytia MIHR [2] = assay: Dose–response curves of Clytia MIHR, luminescence (CHO-K1 cells, Gα-16, GFP-apoaequorin); type: cell-based, Clytia hemisphaerica; parameters: key to Span (best-fit value) / Bottom (best-fit value): % activation, normalized to fitted upper plateau (100%); conditions: for EC50: four-parameter fit, variable slope, triplicate; for HillSlope / LogEC50: best-fit value; for Span / Top / Bottom: best-fit value (luminescence); for EC50 / relative activity on MIHR: three independent dose–response experiments
Experimental: The Clytia MIH amidated peptides are produced from two precursor genes Che-pp4 (generating multiple copies of WPRAamide, WPRYamide, and WPRPamide) and Che-pp1 (multiple copies of WPRPamide and RPRGamide).
as §1
Supplementary file pbio.3000614.s012.xlsx: S2 Data Numerical data corresponding to Fig 1C. The first three tabs show statistical values obtained using Prism 6 software (GraphPad, La Jolla, CA) from the raw luminescence values for 3 independent dose–response experiments. The raw luminescence values are shown, as well as the values normalized with respect to the maximum. […] MIH, maturation-inducing hormone. (XLSX) Click here for additional data file.

[3] = system: fully grown oocytes isolated from MIHR mutant (n5-23) gonads; assay: Oocyte maturation assay, MIHR mutant isolated oocytes (GVBD); type: cell-based, Clytia hemisphaerica; conditions: for Oocyte maturation (number) / Percentage of Oocytes maturing: 4mM BrcAMP, MIH R K.O.
Description: (§2) Fig 4 Oocyte maturation failure in MIHR mutant medusae. Oocyte maturation assays performed using isolated gonads (A, B) or isolated oocytes (C) from MIHR mutant jellyfish compared to WT. In A and C, bar heights represent mean percentages of 3 independent experiments and error bars show standard deviations. Total gonad or oocyte numbers for each treatment are indicated in gray. (A) Spawning response of isolated gonads from WT and n5-23 female medusae. Three treatments were compared as indicated above each panel: Light: light stimulation after incubation in the dark; MIH: treatment of light-maintained gonads with 100 nM WPRPamide; cAMP: treatment of light-maintained gonads with 4 mM Br-cAMP. […] Full datasets from three independent experiments are available in S3 Data. (B) Light microscope images illustrating gonads from an equivalent experiment performed with n5-13 female MIHR mutant medusae 120 minutes after the indicated treatments. Scale bar: 500 μm. […] Full datasets from 3 independent experiments are available in S3 Data. Br-cAMP, bromoadenosine 3′,5′-cyclic monophosphate; cAMP, cyclic adenosine monophosphate; KO, knockout; MIH, maturation-inducing hormone; MIHR, MIH receptor; WT, wild-type.
(§3) Fully grown oocytes were isolated manually from dissected gonads of wild-type and MIHR KO mutant jellyfish prepared as above. Maturation assays were performed in wells of 96-well plates or small plastic petri dishes lined with 2% agarose in MFSW. Spontaneous maturation occurs at a low frequency in control oocytes. To test MIH-induced maturation, 10 μL WPRPamide from 1 μM solution in MFSW was added to a final concentration of 100 nM. In some experiments, Br-cAMP from a 20 mM stock in H2O was used at a final concentration of 4 mM. GVBD was scored at 30 minutes, every 5 minutes, depending on experiments.
(§4) Supplementary file pbio.3000614.s013.xlsx: S3 Data Numerical data corresponding to Fig 4A and 4C. The first tab collects all the raw data from 3 independent gonad spawning assays. Information corresponding to the Fisher exact tests is also shown. […] The means and standard deviations were used to prepare the graph in Fig 4C. Information corresponding to the Fisher exact tests is also shown. (XLSX) Click here for additional data file.

[4] = system: wild-type (WT) isolated female gonads; assay: Gonad spawning assay, wild-type isolated gonads; parameters: species or system Clytia hemisphaerica; conditions: for Gonads spawning (number) / Percentage of spawning gonads: 4mM BrcAMP
Experimental: (§5) We performed a series of oocyte maturation and spawning assays, comparing the responses of wild-type and MIHR mutant isolated gonads and oocytes to different stimuli (Fig 4).
(§6) Sexually mature MIHR mutant medusae from colonies n5-13 and n5-23 and wild-type medusae were cultured on the same day–night cycle. Individual gonads were dissected in the evening after afternoon spawning. To test the light response, one group of each was transferred to 100 μL MFSW in wells of 96-well plastic plates, covered overnight, and re-exposed to white light the following day. To test responses to MIH and cAMP, other groups of dissected gonads were cultured overnight in constant light, then transferred to 96-well plastic plates for two hours. MIH was added to wells as an equal volume of 200 nM WPRPamide (GenScript) stock in MFSW was added to give a final concentration of 100 nM. Alternatively, a stock of 20 mM bromo adenosine 3′,5′cyclic monophosphate (Br-cAMP–Fluka; Sigma Aldrich) in distilled water was added to give a final concentration of 4 mM. Gonads were washed after 5 minutes incubation in Br-cAMP. Oocyte maturation was scored after 30 minutes as germinal vesicle breakdown (GVBD), i.e., visible dissolution of the oocyte nuclear membrane upon entry into M phase, which in all cases was followed by spawning about 1 hour later.
as §4

[5] = system: fully grown oocytes isolated from WT gonads; assay: Oocyte maturation assay, wild-type isolated oocytes (GVBD); type: cell-based, Clytia hemisphaerica; conditions: for Oocyte maturation (number) / Percentage of Oocytes maturing: 4mM BrcAMP, wild type
Description: as §2, §3, §4

[6] = system: MIHR mutant (n5-23, n5-13) isolated female gonads; assay: Gonad spawning assay, MIHR mutant isolated gonads; parameters: species or system Clytia hemisphaerica; conditions: for Gonads spawning (number) / Percentage of spawning gonads: 4mM BrcAMP, MIH R K.O.
Experimental: as §5, §6, §4

[7] = log(agonist) vs. response, variable slope (four parameters), fit of third dataset
[8] = BrcAMP, pooled n=92, Fisher exact test vs WT 0.215946, not significant at p < .01
[9] = wild type, replicate 1, total 12
[10] = wild type, replicate 2, total 10
[11] = wild type, replicate 3, total 10
[12] = BrcAMP, pooled n=32, Fisher exact test vs MIHR KO not significant at p < .01
[13] = BrcAMP, pooled n=59, Fisher exact test vs MIHR KO 0.215946, not significant at p < .01
[14] = BrcAMP, pooled n=29, Fisher exact test vs WT not significant at p < .01

RPRP-NH2 [RPRPa, Cladonema MIH tetrapeptide, RPRP-NH2]
Normalised response (to positive control), mean (Clytia MIHR [1]): 0.33

AWPRP-NH2 [AWPRPa]
Normalised response (to positive control), mean (Clytia MIHR [1]): 0.02128

N=C(N)NCCC[C@H](NC(=O)[C@@H]1CCCN1C(=O)[C@@H](N)CCCNC(=N)N)C(=O)NCC(N)=O [RPRGa] (H-RPRG-NH2; N-terminus assumed)
Normalised response (to positive control), mean (Clytia MIHR [1]): 0.2052
EC50 (Clytia MIHR [2]; dataset/experiment 1): 724 nM
EC50 (Clytia MIHR [2]; dataset/experiment 2): 2210 nM
HillSlope (Clytia MIHR [2]; first dataset): 1.15
LogEC50 (Clytia MIHR [2]; first dataset): -6.14
Span (Clytia MIHR [2]; first dataset): 80378
Top (Clytia MIHR [2]; first dataset): 82566
HillSlope (best-fit value) (Clytia MIHR [2]; [7]): 1.139
LogEC50 (best-fit value) (Clytia MIHR [2]; [7]): -5.859
Span (best-fit value) (Clytia MIHR [2]; [7]): 89.45
HillSlope (Clytia MIHR [2]; second dataset): 0.9524
LogEC50 (Clytia MIHR [2]; second dataset): -5.656
Span (Clytia MIHR [2]; second dataset): 33216
Top (Clytia MIHR [2]; second dataset): 36059
EC50 / relative activity on MIHR (Clytia MIHR [2]): the lowest

Nc1ncnc2c1nc(Br)n2[C@@H]1O[C@@H]2COP(=O)(O)O[C@H]2[C@H]1O [BrcAMP]
Oocyte maturation (number) ([3]; replicate 1, total 31): 30
Percentage of Oocytes maturing ([3]; replicate 1, total 31): 96.77
Oocyte maturation (number) ([3]; replicate 2, total 14): 12
Percentage of Oocytes maturing ([3]; replicate 2, total 14): 85.71
Oocyte maturation (number) ([3]; replicate 3, total 47.00): 41
Percentage of Oocytes maturing ([3]; replicate 3, total 47.00): 87.23
% oocytes maturing, pooled ([3]; BrcAMP, MIHR KO, pooled n=92): 90.2174%
Maturing oocytes, MIHR KO YES [3, 8]: 83
Non-maturing oocytes, MIHR KO NO [3, 8]: 9
Gonads spawning (number) [4, 9]: 12
Percentage of spawning gonads [4, 9]: 100
Gonads spawning (number) [4, 10]: 10
Percentage of spawning gonads [4, 10]: 100
Gonads spawning (number) [4, 11]: 10
Percentage of spawning gonads [4, 11]: 100
Non-spawning gonads, WT NO [4, 12]: 0
Spawning gonads, WT YES [4, 12]: 32
Percentage of spawning gonads (summary) ([4]; BrcAMP, wild type, summary of 3 replicates): 100
Oocyte maturation (number) ([5]; replicate 1, total 15): 15
Percentage of Oocytes maturing ([5]; replicate 1, total 15): 100.00
Oocyte maturation (number) ([5]; replicate 2, total 26): 21
Percentage of Oocytes maturing ([5]; replicate 2, total 26): 80.77
Oocyte maturation (number) ([5]; replicate 3, total 18.00): 13
Percentage of Oocytes maturing ([5]; replicate 3, total 18.00): 72.22
% oocytes maturing, pooled ([5]; BrcAMP, WT, pooled n=59): 83.0508%
Maturing oocytes, WT YES [5, 13]: 49
Non-maturing oocytes, WT NO [5, 13]: 10
Gonads spawning (number) ([6]; replicate 1, total 4): 4
Percentage of spawning gonads ([6]; replicate 1, total 4): 100
Gonads spawning (number) ([6]; replicate 2, total 18): 18
Percentage of spawning gonads ([6]; replicate 2, total 18): 100
Gonads spawning (number) ([6]; replicate 3, total 7): 7
Percentage of spawning gonads ([6]; replicate 3, total 7): 100
Percentage of spawning gonads (summary) ([6]; BrcAMP, MIHR K.O., summary of 3 replicates): 100
Non-spawning gonads, MIHR KO NO [6, 14]: 0
Spawning gonads, MIHR KO YES [6, 14]: 29

N=C(N)NCCC[C@H](NC(=O)[C@@H]1CCCN1C(=O)[C@@H](N)CCCNC(=N)N)C(=O)N[C@@H](Cc1ccc(O)cc1)C(N)=O [RPRYa] (H-RPRY-NH2; N-terminus assumed)
Normalised response (to positive control), mean (Clytia MIHR [1]): 0.39
EC50 (Clytia MIHR [2]; dataset/experiment 1): 57.7 nM
EC50 (Clytia MIHR [2]; dataset/experiment 2): 164 nM
HillSlope (Clytia MIHR [2]; first dataset): 1.301
LogEC50 (Clytia MIHR [2]; first dataset): -7.239
Bottom (Clytia MIHR [2]; first dataset): 997.1
Span (Clytia MIHR [2]; first dataset): 60319
Top (Clytia MIHR [2]; first dataset): 61316
Bottom (best-fit value) (Clytia MIHR [2]; [7]): 5.512
HillSlope (best-fit value) (Clytia MIHR [2]; [7]): 1.159
LogEC50 (best-fit value) (Clytia MIHR [2]; [7]): -6.887
Span (best-fit value) (Clytia MIHR [2]; [7]): 94.5
HillSlope (Clytia MIHR [2]; second dataset): 1.165
LogEC50 (Clytia MIHR [2]; second dataset): -6.785
Bottom (Clytia MIHR [2]; second dataset): 2011
Span (Clytia MIHR [2]; second dataset): 27358
Top (Clytia MIHR [2]; second dataset): 29369
EC50 / relative activity on MIHR (Clytia MIHR [2]): highest activity
